# Source: EP2987533B1, “7-substituted piperazin-1-yl fluoroquinolone compounds, their use in the treatment of cancer, pharmaceutical compositions and a method for preparation” (priority 2014, dated 2016)
# Key:
# melanoma = experiment: NCI five-dose SRB assay, subpanel average; conditions: 48 h; for GI50 / CC50: Homo sapiens; for GI50: read-out: GI50 (median growth inhibitory); for CC50: read-out: LC50 (median lethal); for TGI (total growth inhibitory): average over melanoma subpanel, five concentrations
# OVCAR-5 = experiment: NCI one-dose SRB growth assay; assay type: cell-based; conditions: Homo sapiens; OVCAR-5 (Ovarian Cancer), 10^-5 M, 48 h; read-out: % Growth Inhibition (GI %)
# Protocol: (§1) A primary anticancer assay was performed for an approximately 60 human tumor cell line panel derived from nine neoplastic diseases, in accordance with the protocol of the Drug Evaluation Branch, National Cancer Institute, Bethesda, MD (Monks A. et al., J. Natl. Cancer Inst 1991, 83, 757-766; Boyd M.R. and Paull K.D., Drug. Dev. Res. 1995, 34, 91-109; Shoemaker R.H., Nat. Rev. Cancer 2006, 6, 813-823). Briefly, tested compounds were added to the culture at a single concentration (10^-5M), and the cultures were incubated for 48 h. End point determinations were made with a protein binding dye, sulforhodamine B (SRB). The results for each tested compound were reported as the growth percentage of the treated cells when compared to that of the untreated control cells. The percentage growth was evaluated spectrophotometrically versus controls not treated with test agents.
# SK-MEL-5 = experiment: NCI one-dose SRB growth assay; assay type: cell-based; conditions: Homo sapiens; SK-MEL-5 (Melanoma), 10^-5 M, 48 h; read-out: % Growth Inhibition (GI %)
# Protocol: as §1
# TK-10 = experiment: NCI one-dose SRB growth assay; assay type: cell-based; conditions: Homo sapiens; TK-10 (Renal Cancer), 10^-5 M, 48 h; read-out: % Growth Inhibition (GI %)
# Protocol: as §1
# SNB-19 = experiment: NCI one-dose SRB growth assay; assay type: cell-based; conditions: Homo sapiens; SNB-19 (CNS Cancer), 10^-5 M, 48 h; read-out: % Growth Inhibition (GI %)
# Protocol: as §1
# NCI-H522 = experiment: NCI one-dose SRB growth assay; assay type: cell-based; conditions: Homo sapiens; NCI-H522 (Non-Small Cell Lung Cancer), 10^-5 M, 48 h; read-out: % Growth Inhibition (GI %)
# Protocol: as §1
# MDA-MB-468 = experiment: NCI one-dose SRB growth assay; assay type: cell-based; conditions: Homo sapiens; MDA-MB-468 (Breast Cancer), 10^-5 M, 48 h; read-out: % Growth Inhibition (GI %)
# Protocol: as §1
# SW-620 = experiment: NCI one-dose SRB growth assay; assay type: cell-based; conditions: Homo sapiens; SW-620 (Colon Cancer), 10^-5 M, 48 h; read-out: % Growth Inhibition (GI %)
# Protocol: as §1
# PC-3 = experiment: NCI one-dose SRB growth assay; assay type: cell-based; conditions: Homo sapiens; PC-3 (Prostate Cancer), 10^-5 M, 48 h; read-out: % Growth Inhibition (GI %)
# Protocol: as §1
# RXF 393 = experiment: NCI one-dose SRB growth assay; assay type: cell-based; conditions: Homo sapiens; RXF 393 (Renal Cancer), 10^-5 M, 48 h; read-out: % Growth Inhibition (GI %)
# Protocol: as §1
# SR = experiment: NCI one-dose SRB growth assay; assay type: cell-based; conditions: Homo sapiens; SR (Leukemia), 10^-5 M, 48 h; read-out: % Growth Inhibition (GI %)
# Protocol: as §1
# SF-268 = experiment: NCI one-dose SRB growth assay; assay type: cell-based; conditions: Homo sapiens; SF-268 (CNS Cancer), 10^-5 M, 48 h; read-out: % Growth Inhibition (GI %)
# Protocol: as §1
# OVCAR-8 = experiment: NCI one-dose SRB growth assay; assay type: cell-based; conditions: Homo sapiens; OVCAR-8 (Ovarian Cancer), 10^-5 M, 48 h; read-out: % Growth Inhibition (GI %)
# Protocol: as §1
# A498 = experiment: NCI one-dose SRB growth assay; assay type: cell-based; conditions: Homo sapiens; A498 (Renal Cancer), 10^-5 M, 48 h; read-out: % Growth Inhibition (GI %)
# Protocol: as §1
# DU-145 = experiment: NCI one-dose SRB growth assay; assay type: cell-based; conditions: Homo sapiens; DU-145 (Prostate Cancer), 10^-5 M, 48 h; read-out: % Growth Inhibition (GI %)
# Protocol: as §1
# SK-MEL-28 = experiment: NCI one-dose SRB growth assay; assay type: cell-based; conditions: Homo sapiens; SK-MEL-28 (Melanoma), 10^-5 M, 48 h; read-out: % Growth Inhibition (GI %)
# Protocol: as §1
# SK-OV-3 = experiment: NCI one-dose SRB growth assay; assay type: cell-based; conditions: Homo sapiens; SK-OV-3 (Ovarian Cancer), 10^-5 M, 48 h; read-out: % Growth Inhibition (GI %)
# Protocol: as §1
# HCT-116 = experiment: NCI one-dose SRB growth assay; assay type: cell-based; conditions: Homo sapiens; HCT-116 (Colon Cancer), 10^-5 M, 48 h; read-out: % Growth Inhibition (GI %)
# Protocol: as §1
# SN12C = experiment: NCI one-dose SRB growth assay; assay type: cell-based; conditions: Homo sapiens; SN12C (Renal Cancer), 10^-5 M, 48 h; read-out: % Growth Inhibition (GI %)
# Protocol: as §1
# K-562 = experiment: NCI one-dose SRB growth assay; assay type: cell-based; conditions: Homo sapiens, K562; K-562 (Leukemia), 10^-5 M, 48 h; read-out: % Growth Inhibition (GI %)
# Protocol: as §1
# ACHN = experiment: NCI one-dose SRB growth assay; assay type: cell-based; conditions: Homo sapiens; ACHN (Renal Cancer), 10^-5 M, 48 h; read-out: % Growth Inhibition (GI %)
# Protocol: as §1
# SK-MEL-2 = experiment: NCI one-dose SRB growth assay; assay type: cell-based; conditions: Homo sapiens; SK-MEL-2 (Melanoma), 10^-5 M, 48 h; read-out: % Growth Inhibition (GI %)
# Protocol: as §1
# HOP-62 = experiment: NCI one-dose SRB growth assay; assay type: cell-based; conditions: Homo sapiens; HOP-62 (Non-Small Cell Lung Cancer), 10^-5 M, 48 h; read-out: % Growth Inhibition (GI %)
# Protocol: as §1
# SNB-75 = experiment: NCI one-dose SRB growth assay; assay type: cell-based; conditions: Homo sapiens; SNB-75 (CNS Cancer), 10^-5 M, 48 h; read-out: % Growth Inhibition (GI %)
# Protocol: as §1
# NCI-H460 = experiment: NCI one-dose SRB growth assay; assay type: cell-based; conditions: Homo sapiens; NCI-H460 (Non-Small Cell Lung Cancer), 10^-5 M, 48 h; read-out: % Growth Inhibition (GI %)
# Protocol: as §1
# NSC lung cancer = experiment: NCI five-dose SRB assay, subpanel average; conditions: 48 h; for GI50 / CC50: Homo sapiens; for GI50: read-out: GI50 (median growth inhibitory); for CC50: read-out: LC50 (median lethal); for TGI (total growth inhibitory): average over NSC lung cancer subpanel, five concentrations
Compound,GI50 (melanoma) [µM],CC50 (melanoma) [µM],TGI (total growth inhibitory) (melanoma),inhibition at 10 µM (OVCAR-5) [%],inhibition at 10 µM (SK-MEL-5) [%],inhibition at 10 µM (TK-10) [%],inhibition at 10 µM (SNB-19) [%],inhibition at 10 µM (NCI-H522) [%],inhibition at 10 µM (MDA-MB-468) [%],inhibition at 10 µM (SW-620) [%],inhibition at 10 µM (PC-3) [%],inhibition at 10 µM (RXF 393) [%],inhibition at 10 µM (SR) [%],inhibition at 10 µM (SF-268) [%],inhibition at 10 µM (OVCAR-8) [%],inhibition at 10 µM (A498) [%],inhibition at 10 µM (DU-145) [%],inhibition at 10 µM (SK-MEL-28) [%],inhibition at 10 µM (SK-OV-3) [%],inhibition at 10 µM (HCT-116) [%],other results
O=C(O)c1cn(C2CC2)c2cc(N3CCN(S(=O)(=O)c4ccc(Cl)c(Cl)c4)CC3)c(F)cc2c1=O [Compound 3b],2.54,87.1,52.41 µM,87.5,97.9,66.8,75.3,> 100,> 100,79.3,83.8,71,> 100,80.4,94.5,86.2,82.8,51.5,73.2,96,inhibition at 10 µM (SN12C): 89.6%; inhibition at 10 µM (K-562): 83.1%; inhibition at 10 µM (ACHN): 95%; inhibition at 10 µM (SK-MEL-2): > 100%; inhibition at 10 µM (HOP-62): 84.8%; inhibition at 10 µM (SNB-75): 86.8%; inhibition at 10 µM (NCI-H460): 94.2%; GI50 (NSC lung cancer): 3.07 µM; CC50 (NSC lung cancer): > 100 µM; TGI (total growth inhibitory) (NSC lung cancer): 84.28 µM
CCn1cc(C(=O)O)c(=O)c2cc(F)c(N3CCN(S(=O)(=O)c4cccc5ccccc45)CC3)cc21 [Compound 7a],3.2,99.7,28.33 µM,84.5,> 100,74,71.2,> 100,95.2,77.2,92.2,71,97.8,83.6,91.6,> 100,81.1,40.8,84.4,94.5,inhibition at 10 µM (SN12C): 88.1%; inhibition at 10 µM (K-562): 84.6%; inhibition at 10 µM (ACHN): > 100%; inhibition at 10 µM (SK-MEL-2): 91.2%; inhibition at 10 µM (HOP-62): 84.9%; inhibition at 10 µM (SNB-75): 85.9%; inhibition at 10 µM (NCI-H460): 92%; GI50 (NSC lung cancer): 3.04 µM; CC50 (NSC lung cancer): > 100 µM; TGI (total growth inhibitory) (NSC lung cancer): 46.59 µM
Cc1cc(C)c(S(=O)(=O)N2CCN(c3cc4c(cc3F)c(=O)c(C(=O)O)cn4C3CC3)CC2)c(C)c1 [Compound 6b],22.3,> 100,c (Compounds showed values > 100µM),57.8,45.1,13.5,33.7,32.7,34.9,20.2,32.1,48.7,60.9,43.3,40.5,37,28.6,30.9,18.4,67.8,inhibition at 10 µM (SN12C): 86.1%; inhibition at 10 µM (K-562): 36.5%; inhibition at 10 µM (ACHN): 48.7%; inhibition at 10 µM (SK-MEL-2): < 10%; inhibition at 10 µM (HOP-62): 42.7%; inhibition at 10 µM (SNB-75): 63.4%; inhibition at 10 µM (NCI-H460): 60.5%; GI50 (NSC lung cancer): 2.88 µM; CC50 (NSC lung cancer): > 100 µM; TGI (total growth inhibitory) (NSC lung cancer): c (Compounds showed values > 100µM)
CCn1cc(C(=O)O)c(=O)c2cc(F)c(N3CCN(S(=O)(=O)c4ccc(Cl)cc4Cl)CC3)cc21 [Compound 2a],2.3,39.5,6.36 µM,92.1,> 100,87.6,73.8,> 100,> 100,83.7,98.4,72.1,> 100,75.4,94.2,> 100,88.4,< 10,98.3,93.6,inhibition at 10 µM (SN12C): 89.7%; inhibition at 10 µM (K-562): 89.1%; inhibition at 10 µM (ACHN): > 100%; inhibition at 10 µM (SK-MEL-2): > 100%; inhibition at 10 µM (HOP-62): 80.5%; inhibition at 10 µM (SNB-75): 25.2%; inhibition at 10 µM (NCI-H460): 89.1%; GI50 (NSC lung cancer): 2.49 µM; CC50 (NSC lung cancer): 73.2 µM; TGI (total growth inhibitory) (NSC lung cancer): 19.61 µM
